Measurements as given in patent publication US20240246916A1, “7-NITRO-8-HYDROXYQUINOLINE DERIVATIVES, PREPARATION METHOD THEREFORE AND MEDICAL USE THEREOF” (Jiangsu Yahong Meditech Co., Ltd., priority 2021, published 2024).
Converted amounts (≈) assume the structure as drawn.

Assays:
Type in all cases: cell-based
[1] = system: Acinetobacter baumannii (carbapenem-resistant clinical isolates; ATCC19606); test: MIC by micro broth dilution (CLSI), Acinetobacter baumannii; settings: Acinetobacter baumannii; for MIC50 / MIC90: ATCC19606, Clinical strain; for MIC50: read-out: MIC50; for MIC90: read-out: MIC90; for MIC: Standard strain ATCC19606, read-out: MIC
Text: (§1) The test bacteria were one strain of clinically isolated carbapenem-resistant Escherichia coli, two strains of carbapenem-resistant Acinetobacter baumannii, two strains of methicillin-resistant Staphylococcus aureus, two strains of sensitive Staphylococcus aureus, and 7 strains of Klebsiella pneumoniae. Duplicate strains isolated from the same patient were eliminated. There were also […] quality control strains Escherichia coli ATCC25922, Acinetobacter baumannii ATCC19606, Staphylococcus aureus ATCC29213, Klebsiella pneumoniae ATCC BAA-1705, ATCC 43816, ATCC BAA-2472, ATCC-BAA-1898, ATCC-BAA-1899, NCTC 13440 and ATCC-BAA-2470. There were 24 strains in total.
(§2) According to the recommendations of relevant documents of the American Clinical and Laboratory Standards Institute (CLSI), the micro broth dilution method was used to determine the MIC of the compounds of the present invention against clinically isolated strains. • 3.1 Formulation of antibacterial drug: All the compounds of the present invention were dissolved in DMSO. The drug concentration range was 128 mg/L to 0.06 mg/L. • 3.2 Culture medium: The drug susceptibility test used cation adjusted Mueller-Hinton broth (CAMHB). • 3.3 Amount of inoculum: The test bacteria cultured overnight were adjusted to 0.5 McFarland turbidity by the direct colony suspension method, and diluted 100 folds, the final inoculum amount was 10^5 CFU/mL. • 3.4 Culture conditions: The test bacteria were cultured at 35±2° C. for 20 hours in air.
(§3) The drug susceptibility test results were interpretated by reference to CLSI 2019 M100 29th edition criteria.
(§4) The quality control strains of the drug susceptibility test were Escherichia coli ATCC 25922, Acinetobacter baumannii ATCC 19606, Staphylococcus aureus ATCC 29213, Klebsiella pneumoniae ATCC BAA-1705, ATCC 43816, ATCC BAA-2472, ATCC-BAA-1898, ATCC-BAA-1899, NCTC 13440 and ATCC-BAA-2470.
(§5) The results of drug susceptibility test were statistically analyzed by WHONET software (version 5.6).

[2] = system: Staphylococcus aureus (methicillin-resistant and sensitive clinical isolates; ATCC29213); test: MIC by micro broth dilution (CLSI), Staphylococcus aureus; settings: for MIC50 / MIC90: Clinical strain; for MIC50: read-out: MIC50; for MIC90: read-out: MIC90; for MIC: Standard strain ATCC29213, read-out: MIC
Text: as §1, §2, §3, §4, §5

[3] = system: Escherichia coli (carbapenem-resistant clinical isolate; ATCC25922); test: MIC by micro broth dilution (CLSI), Escherichia coli; settings: Escherichia coli; for MIC50 / MIC90: ATCC25922, Clinical strain; for MIC50: read-out: MIC50; for MIC90: read-out: MIC90; for MIC: Standard strain ATCC25922, read-out: MIC
Text: as §1, §2, §3, §4, §5

| Structure (SMILES) | MIC50 [1] | MIC90 [1] | MIC50 [2] | MIC90 [2] | MIC [2] | MIC50 [3] | MIC90 [3] | MIC [3] | MIC [1] |
| --- | --- | --- | --- | --- | --- | --- | --- | --- | --- |
| Cc1cc([N+](=O)[O-])c(O)c2ncccc12 [Example 4, 5-Methyl-7-nitroquinolin-8-ol] | 32 µg/mL (≈ 157 µM) | 32 µg/mL (≈ 157 µM) |  |  |  |  |  |  |  |
| CNc1c([N+](=O)[O-])c(O)c2ncccc2c1Cl [Example 7, 5-Chloro-6-(methylamino)-7-nitroquinolin-8-ol] | 32 µg/mL (≈ 126 µM) | 64 µg/mL (≈ 252 µM) | 8 µg/mL (≈ 31.5 µM) | 16 µg/mL (≈ 63.1 µM) | 16 µg/mL (≈ 63.1 µM) | 64 µg/mL (≈ 252 µM) | 128 µg/mL (≈ 505 µM) | 64 µg/mL (≈ 252 µM) | 64 µg/mL (≈ 252 µM) |
| O=[N+]([O-])c1ccc2c(OC(F)F)ccnc2c1O [Example 77, 4-(difluoromethoxy)-7-nitroquinolin-8-ol] | 16 µg/mL (≈ 62.5 µM) | 32 µg/mL (≈ 125 µM) | 8 µg/mL (≈ 31.2 µM) | 8 µg/mL (≈ 31.2 µM) | 8 µg/mL (≈ 31.2 µM) | 16 µg/mL (≈ 62.5 µM) | 128 µg/mL (≈ 500 µM) | 16 µg/mL (≈ 62.5 µM) | 8 µg/mL (≈ 31.2 µM) |
| C#Cc1ccnc2c(O)c([N+](=O)[O-])ccc12 [Example 80, 4-ethynyl-7-nitroquinolin-8-ol] | > 128 µg/mL | > 128 µg/mL | 128 µg/mL (≈ 598 µM) | 128 µg/mL (≈ 598 µM) | 128 µg/mL (≈ 598 µM) | > 128 µg/mL | > 128 µg/mL | > 128 µg/mL | > 128 µg/mL |
| O=[N+]([O-])c1ccc2c(C(F)F)ccnc2c1O [Example 81, 4-(difluoromethyl)-7-nitroquinolin-8-ol] | 16 µg/mL (≈ 66.6 µM) | 32 µg/mL (≈ 133 µM) | 8 µg/mL (≈ 33.3 µM) | 16 µg/mL (≈ 66.6 µM) | 16 µg/mL (≈ 66.6 µM) | 32 µg/mL (≈ 133 µM) | 128 µg/mL (≈ 533 µM) | 16 µg/mL (≈ 66.6 µM) | 16 µg/mL (≈ 66.6 µM) |
| O=[N+]([O-])c1ccc2c(Cl)c(-c3ccccc3)cnc2c1O [Example 82, 4-chloro-7-nitro-3-phenylquinolin-8-ol] | > 128 µg/mL | > 128 µg/mL | 1 µg/mL (≈ 3.33 µM) | 1 µg/mL (≈ 3.33 µM) | 1 µg/mL (≈ 3.33 µM) | > 128 µg/mL | > 128 µg/mL | > 128 µg/mL | 128 µg/mL (≈ 426 µM) |
| Cc1cnc2c(O)c([N+](=O)[O-])cc(Cl)c2c1 [Example 83, 5-chloro-3-methyl-7-nitroquinolin-8-ol] | 32 µg/mL (≈ 134 µM) | 64 µg/mL (≈ 268 µM) | 4 µg/mL (≈ 16.8 µM) | 4 µg/mL (≈ 16.8 µM) | 4 µg/mL (≈ 16.8 µM) | 128 µg/mL (≈ 536 µM) | 128 µg/mL (≈ 536 µM) | 32 µg/mL (≈ 134 µM) | 16 µg/mL (≈ 67 µM) |
| Cc1cnc2c(O)c([N+](=O)[O-])cc(C3CC3)c2c1 [Example 84, 5-cyclopropyl-3-methyl-7-nitroquinolin-8-ol] | 64 µg/mL (≈ 262 µM) | 128 µg/mL (≈ 524 µM) | 4 µg/mL (≈ 16.4 µM) | 64 µg/mL (≈ 262 µM) | 4 µg/mL (≈ 16.4 µM) | > 128 µg/mL | > 128 µg/mL | 64 µg/mL (≈ 262 µM) | 64 µg/mL (≈ 262 µM) |
| O=[N+]([O-])c1ccc2c(CN3CCCCC3)ccnc2c1O [Example 85, 7-nitro-4-(piperidin-1-yl-methyl)quinolin-8-ol] | 32 µg/mL (≈ 111 µM) | 64 µg/mL (≈ 223 µM) | 16 µg/mL (≈ 55.7 µM) | 64 µg/mL (≈ 223 µM) | 64 µg/mL (≈ 223 µM) | 64 µg/mL (≈ 223 µM) | 64 µg/mL (≈ 223 µM) | 64 µg/mL (≈ 223 µM) | 32 µg/mL (≈ 111 µM) |
| Cc1cnc2c(O)c([N+](=O)[O-])cc(F)c2c1 [Example 86, 5-fluoro-3-methyl-7-nitroquinolin-8-ol] | 16 µg/mL (≈ 72 µM) | 32 µg/mL (≈ 144 µM) | 8 µg/mL (≈ 36 µM) | > 128 µg/mL | 8 µg/mL (≈ 36 µM) | 32 µg/mL (≈ 144 µM) | 32 µg/mL (≈ 144 µM) | 16 µg/mL (≈ 72 µM) | 16 µg/mL (≈ 72 µM) |
| O=[N+]([O-])c1cc(CN2CCOCC2)c2cccnc2c1O [Example 87, 5-(morpholinomethyl)-7-nitroquinolin-8-ol acetate] | > 128 µg/mL | > 128 µg/mL | 128 µg/mL | > 128 µg/mL | 128 µg/mL | > 128 µg/mL | > 128 µg/mL | 128 µg/mL | 128 µg/mL |
| CCOC(=O)c1cnc2c(O)c([N+](=O)[O-])ccc2c1 [Example 88, ethyl 8-hydroxy-7-nitroquinoline-3-carboxylate] | > 128 µg/mL | > 128 µg/mL | 4 µg/mL (≈ 15.3 µM) | 16 µg/mL (≈ 61 µM) | 16 µg/mL (≈ 61 µM) | > 128 µg/mL | > 128 µg/mL | > 128 µg/mL | 128 µg/mL (≈ 488 µM) |
| O=[N+]([O-])c1ccc2c(C3CCNCC3)ccnc2c1O [Example 105, 7-nitro-4-(piperidin-4-yl)quinolin-8-ol] |  |  | 128 µg/mL (≈ 468 µM) | 128 µg/mL (≈ 468 µM) | 128 µg/mL (≈ 468 µM) | 128 µg/mL (≈ 468 µM) | > 128 µg/mL | 128 µg/mL (≈ 468 µM) |  |
| O=[N+]([O-])c1cc(F)c2cccnc2c1O [Example 106, 5-fluoro-7-nitroquinolin-8-ol] |  |  | 16 µg/mL (≈ 76.9 µM) | 16 µg/mL (≈ 76.9 µM) | 16 µg/mL (≈ 76.9 µM) | 8 µg/mL (≈ 38.4 µM) | 128 µg/mL (≈ 615 µM) | 16 µg/mL (≈ 76.9 µM) |  |
| Cc1c([N+](=O)[O-])c(O)c2ncccc2c1Cl [Example 107, 5-chloro-6-methyl-7-nitroquinolin-8-ol] |  |  | 4 µg/mL (≈ 16.8 µM) | 8 µg/mL (≈ 33.5 µM) | 8 µg/mL (≈ 33.5 µM) | 64 µg/mL (≈ 268 µM) | 128 µg/mL (≈ 536 µM) | 32 µg/mL (≈ 134 µM) |  |
| O=C(O)C(F)(F)F.O=[N+]([O-])c1cc(C(F)F)c2cccnc2c1O [Example 108, 5-(difluoromethyl)-7-nitroquinolin-8-ol trifluoroacetate] |  |  | > 128 µg/mL | > 128 µg/mL | 128 µg/mL | > 128 µg/mL | > 128 µg/mL | > 128 µg/mL |  |
| O=[N+]([O-])c1cc(CO)c2cccnc2c1O [Example 109, 5-(hydroxymethyl)-7-nitroquinolin-8-ol] |  |  | 128 µg/mL (≈ 581 µM) | 128 µg/mL (≈ 581 µM) | 64 µg/mL (≈ 291 µM) | 32 µg/mL (≈ 145 µM) | 64 µg/mL (≈ 291 µM) | 64 µg/mL (≈ 291 µM) |  |
